Results as given in patent publication EP0768085A1, “ANTIBACTERIAL AGENT” (DAIICHI PHARMACEUTICAL CO., LTD., priority 1994, dated 1996).
≈ marks a conversion by molar mass, not a printed value.

Tests used:
Format in all cases: cell-based
[1] = system: Staphylococcus aureus (209-P); experiment: Antibacterial activity (IC), agar as in Example 8 (Example 15, Table 48); conditions: 18 h
Method: (§1) The antibacterial action was evaluated by the inhibitory concentration (hereinafter abbreviated as IC) at which propagation of the bacteria cultured at 37°C for 18 hours was inhibited. Inhibition was determined by the turbidity of the medium. The expressions "IC≤100", "≤10", and "≤1" indicate that MIC-equivalent values obtained at the succesive […] dilution of the sample are 100-10 µg/ml, 10-1 µg/ml, and not more than 1 µg/ml, respectively. […] (In the subsequent Examples, the same rule applies correspondingly.) Table 39
(§2) A suitable amount of a sample was dissolved in dimethylsulfoxide (DMSO), after which the resulting solution was diluted with the same amount of sterilized distilled water to prepare a bulk sample of 1,000 µg/ml. Separately, a bacterial liquid for the test (methicillin-resistant Staphylococcus aureus (MRSA) isolated from humans) which had been cultured in Mueller-Hinton broth (product of DIFCO) was prepared and inoculated to a Mueller-Hinton agar (product of DIFCO) containing the sample so that the final inoculation amount of 10^6 CFU/ml was achieved. The final concentrations of the samples were 100, 10, and 1 µg/ml.
(§3) After culturing at 37°C for 18 hours, the antibacterial activity was evaluated in terms of IC in a manner similar to that described in Example 4.
The bacterium used for the test was Staphylococcus aureus (209-P).

[2] = system: Pasteurella multocida (Kobe-6); experiment: Antibacterial activity (IC), agar as in Example 8 (Example 17, Table 50); conditions: 18 h, origin pig
Method: as §1, §2, §3
In a manner similar to that described in Example 8, antibacterial activity of the invention compound was determined. The bacterium used for the test was Pasteurella Kobe-6 (origin: pig, Pasteurella multocida).

[3] = system: Streptococcus aureus (TI-1); experiment: Antibacterial activity (IC), agar as in Example 8 (Example 16, Table 49); conditions: 18 h
Method: as §1, §2, §3
In a manner similar to that described in Example 8, antibacterial activity of the invention compound was determined. The bacterium used for the test was […] aureus (TI-1).

[4] = system: Staphylococcus aureus 209-P; experiment: Antibacterial activity (IC), Mueller-Hinton broth, 96-well microplate (Example 4, Table 39); conditions: 37°C, 18 hours
Method: (§4) A suitable amount of a sample was dissolved in dimethylsulfoxide (DMSO), and the resultant solution was diluted with the same amount of sterilized distilled water to prepare a bulk sample of 1,000 µg/ml. Mueller-Hinton broth (product of DIFCO) was dispensed into each well of 96-well microplate. Thereafter, the bulk specimen was added to the first well of a row, and successively diluted (10-fold each time) with sterilized distilled water. Separately, a bacterial cell suspension for the test (Staphylococcus aureus 209-P) which had been cultured in the above-mentioned broth overnight at 37°C was inoculated to each well so that the final inoculation amount of 10^6 CFU/ml was attained. The final concentrations of the samples were 100, 10, and 1 µg/ml.
as §1

[5] = system: Staphylococcus aureus TI-1; experiment: Antibacterial activity (IC), broth microplate as in Example 4 (Example 5, Table 40); conditions: TI1, 18 h
Method: as §4, §1
In a manner similar to that described in Example 4, antibacterial activity of the invention compound was determined. The bacterium used for the test was Staphylococcus aureus TI-1.

Row | MIC [1] [µg/mL] | MIC [2] [µg/mL] | MIC [3] [µg/mL] | MIC [4] [µg/mL] | MIC [5] [µg/mL] | SMILES
1 | 10 to 100 (≈ 18.5 to 185 µM) | 10 to 100 (≈ 18.5 to 185 µM) | 10 to 100 (≈ 18.5 to 185 µM) | – | – | CC(Oc1cc(Oc2ccc(C(F)(F)F)cc2Cl)ccc1[N+](=O)[O-])C(=O)C(C#N)C(=O)N1CCOCC1 (stereo not shown) [compound 137]
2 | – | – | – | 10 to 100 (≈ 18.9 to 189 µM) | – | CC(Oc1ccc(Oc2ncc(C(F)(F)F)cc2Cl)cc1)C(=O)C(C#N)c1c(Cl)cccc1Cl (stereo not shown) [compound 23]
3 | – | – | – | – | 10 to 100 (≈ 20.1 to 201 µM) | CC(Oc1ccc(Oc2ncc(C(F)(F)F)cc2Cl)cc1)C(=O)C(C#N)c1c(F)cccc1F (stereo not shown) [compound 28]
4 | – | – | – | 10 to 100 (≈ 20.4 to 204 µM) | 10 to 100 (≈ 20.4 to 204 µM) | CC(Oc1ccc(Oc2ccc([N+](=O)[O-])cc2F)cc1)C(=O)C(C#N)c1ccc(Cl)cc1Cl (stereo not shown) [compound 29]
5 | – | – | – | 10 to 100 (≈ 25 to 250 µM) | 10 to 100 (≈ 25 to 250 µM) | CC(Oc1ccc(Oc2ccc(C#N)cc2F)cc1)C(=O)C(C#N)c1ccccc1 (stereo not shown) [Compound No. 30]
6 | – | – | – | 10 to 100 (≈ 20.1 to 201 µM) | 10 to 100 (≈ 20.1 to 201 µM) | CC(Oc1ccc(Oc2ncc(C(F)(F)F)cc2Cl)cc1)C(=O)C(C#N)c1cc(F)ccc1F (stereo not shown) [compound 26]
7 | – | – | – | 10 to 100 (≈ 21.4 to 214 µM) | 10 to 100 (≈ 21.4 to 214 µM) | CC(Oc1ccc(Oc2ncc(C(F)(F)F)cc2Cl)cc1)C(=O)C(C#N)c1cccs1 (stereo not shown) [compound 19]
8 | 1 to 10 (≈ 2.02 to 20.2 µM) | – | 1 to 10 (≈ 2.02 to 20.2 µM) | – | – | CC(Oc1cccc(Oc2ccc(C(F)(F)F)cc2Cl)c1)C(=O)C(C#N)C(=O)N1CCCCC1 (stereo not shown) [compound 208]
9 | – | – | – | 10 to 100 (≈ 18.8 to 188 µM) | 1 to 10 (≈ 1.88 to 18.8 µM) | CC(Oc1ccc(Oc2ncc(C(F)(F)F)cc2Cl)cc1)C(=O)C(C#N)c1nc(Cl)cc(Cl)n1 (stereo not shown) [compound 21]
10 | 1 to 10 (≈ 1.81 to 18.1 µM) | – | – | – | – | CC(Oc1cc(Oc2ccc(C(F)(F)F)cc2Cl)ccc1Cl)C(=O)C(C#N)C(=O)N(C)c1ccccc1 (stereo not shown) [compound 175]
11 | – | – | – | 10 to 100 (≈ 21.3 to 213 µM) | 10 to 100 (≈ 21.3 to 213 µM) | CC(Oc1ccc(Oc2ccc(C#N)cc2F)cc1)C(=O)C(C#N)c1ccc(Cl)cc1Cl (stereo not shown) [Compound No. 31]
12 | – | – | – | 10 to 100 (≈ 19.5 to 195 µM) | 10 to 100 (≈ 19.5 to 195 µM) | CC(Oc1ccc(Oc2ncc(C(F)(F)F)cc2Cl)cc1)C(=O)C(C#N)c1c(F)cccc1Cl (stereo not shown) [compound 24]
13 | ≤ 1 | – | ≤ 1 | – | – | CC(Oc1cccc(Oc2ccc(C(F)(F)F)cc2Cl)c1)C(=O)C(C#N)c1cccc(Cl)c1 (stereo not shown) [compound 207]
14 | 1 to 10 (≈ 2.02 to 20.2 µM) | – | ≤ 1 | – | – | CC(Oc1cccc(Oc2ccc(C(F)(F)F)cn2)c1)C(=O)C(C#N)c1ccc(Cl)c(Cl)c1 (stereo not shown) [Compound No. 102, 2-(3,4-dichlorophenyl)-3-oxo-4-[3-(5-trifluoromethyl-2-pyridyloxy)phenoxy]pentanonitrile]
15 | 10 to 100 (≈ 20.4 to 204 µM) | – | 10 to 100 (≈ 20.4 to 204 µM) | – | – | COc1ccc(C(C#N)C(=O)C(C)Oc2cccc(Oc3ccc(C(F)(F)F)cc3Cl)c2)cc1 (stereo not shown) [Compound No. 107, 4-[3-(2-chloro-4-trifluoromethylphenoxy)-phenoxy]-2-(4-methoxyphenyl)-3-oxopentanonitrile]
16 | 1 to 10 (≈ 1.89 to 18.9 µM) | 10 to 100 (≈ 18.9 to 189 µM) | 1 to 10 (≈ 1.89 to 18.9 µM) | – | – | CC(Oc1cc(Oc2ccc(C(F)(F)F)cc2Cl)ccc1Cl)C(=O)C(C#N)C(=O)N1CCCCC1 (stereo not shown) [compound 170]
